From patent publication US20250241310A1, “METHODS AND COMPOSITION FOR CONTROLLING PESTS” (UPL CORPORATION LIMITED, priority 2021, published 2025)

How the values were obtained:
Assay type in all cases: in vivo
[1] = tested on: corn rootworm (Diabrotica virgifera virgifera); assay: Field trial, seed treatment, efficacy against corn rootworm (% control and root damage index); conditions: for Damage Index: scale 1-6, corn roots
Method: Trials were carried out in field to assess efficacy of flupyrimin against corn rootworm (Diabrotica virgifera virgifera). Seeds were treated with flupyrimin before sowing. Evaluation was done to check % control of said insects at different dosage. Soil Texture=clay loam, pH=6.89, OM %=3.29.
Further, the damage index (Scale 1-6) at different concentrations was evaluated.
Assessment of the amount of damage by larval feeding of D. virgifera on corn roots were made by digging out the root system taking a diameter of approximately 25 cm to a depth of 15 cm. The root systems were then washed so that all crown roots were fairly clean. Damage on the root systems was assessed on 10 plants per plot (40 plants per treatment) using a scale as the following: • 1.0=no feeding damage; • 1.5=visible feeding scars present (not illustrated, but similar to a rating of two); • 2.0=up to three roots pruned slightly; • 2.5=more than three roots pruned, but none chewed to within 4 cm of plant; • 3.0=one to three roots chewed to within 4 cm of plant; • 3.5=more than three roots chewed to within 4 cm of plant; • 4.0=one entire node or equivalent number of roots destroyed • 4.5=about 1.5 nodes destroyed • 5.0=two nodes destroyed • 5.5=about 2.5 nodes destroyed • 6.0=three or more nodes completely destroyed (not illustrated, but similar to a rating of five)

[2] = tested on: Corn leafhopper (Dalbulus maidis); assay: Field trial, % control of adult corn leafhopper per plant
Method: Trials were carried out in field to assess efficacy of flupyrimin against Corn leafhopper (Dalbulus maidis). Evaluation was done to check % control of adult insects per plant at different dosage at 3 days after emergence and 7 days after emergence.

[3] = tested on: fall army worm (Spodoptera frugiperda); assay: Field trial in corn plantation, % control of fall army worm, flupyrimin alone
Method: Trials were carried out in the field to assess efficacy of flupyrimin against fall army worm (Spodoptera frugiperda) in corn plantation. Evaluation was done to check % control of said insects at different dosage for 3, 7, 10, 14 DAA for 1st application and 3, 7, 10, 14, 21, 28, 35, and 42 DAA for 2nd application. The rate of application was 500 lit/ha.

[4] = tested on: seed corn maggot (Delia platura); assay: Field trial, seed treatment, pest severity of seed corn maggot
Method: Trials were carried out in field to assess efficacy of flupyrimin against seed corn maggot (Delia platura). Seeds were treated with flupyrimin before sowing. Evaluation was done to evaluate pest severity of said insects at different dosage. Soil Texture=fine sandy loam, pH=7, OM %=0.8.

O=C(/N=c1\ccccn1Cc1ccc(Cl)nc1)C(F)(F)F [Flupyrimin, N-[(E)-1-(6-chloro-3-pyridinylmethyl)pyridin-2 (1H)-ylidene]-2,2,2-trifluoroacetamide]
Damage Index ([1]; 100 g/100 kg of seeds): 2.3 | Damage Index ([1]; 200 g/100 kg of seeds): 1.8 | Damage Index ([1]; 300 g/100 kg of seeds): 1.1 | Damage Index ([1]; 400 g/100 kg of seeds): 1 | Damage Index ([1]; 500 g/100 kg of seeds): 1 | % Control ([1]; seed treatment 100 g/100 kg of seeds): 49.39% | % Control ([1]; seed treatment 200 g/100 kg of seeds): 70.4% | % Control ([1]; seed treatment 300 g/100 kg of seeds): 96.38% | % Control ([1]; seed treatment 400 g/100 kg of seeds): 99.36% | % Control ([1]; seed treatment 500 g/100 kg of seeds): 100% | insect control against corn rootworm (in words) ([1]; summary of Table 1): good insect control | reduction of root damage (in words) ([1]; summary of Table 2, different concentrations): efficacious in reducing the damage | % Control ([2]; 100 g ai/100 kg, rate 0.2 Kg-L/ha, 3 DAE): 65% | % Control ([2]; 100 g ai/100 kg, rate 0.2 Kg-L/ha, 7 DAE): 50% | % Control ([2]; 200 g ai/100 kg, rate 0.4 Kg-L/ha, 3 DAE): 50.91% | % Control ([2]; 200 g ai/100 kg, rate 0.4 Kg-L/ha, 7 DAE): 45.83% | % Control ([2]; 300 g ai/100 kg, rate 0.6 Kg-L/ha, 3 DAE): 86.93% | % Control ([2]; 300 g ai/100 kg, rate 0.6 Kg-L/ha, 7 DAE): 47.02% | % Control ([2]; 500 g ai/100 kg, rate 1.0 Kg-L/ha, 3 DAE): 80% | % Control ([2]; 500 g ai/100 kg, rate 1.0 Kg-L/ha, 7 DAE): 63.69% | control of corn leafhopper (in words) ([2]; summary of Table 4): good control | % Control ([3]; post 1st application, 150 g a.i./ha, 3 DAA): 27.8% | % Control ([3]; post 1st application, 150 g a.i./ha, 7 DAA): 29.1% | % Control ([3]; post 1st application, 150 g a.i./ha, 10 DAA): 28.1% | % Control ([3]; post 1st application, 150 g a.i./ha, 14 DAA): 24.4% | % Control ([3]; post 1st application, 200 g a.i./ha, 3 DAA): 32.8% | % Control ([3]; post 1st application, 200 g a.i./ha, 7 DAA): 34.1% | % Control ([3]; post 1st application, 200 g a.i./ha, 10 DAA): 33.7% | % Control ([3]; post 1st application, 200 g a.i./ha, 14 DAA): 29.5% | % Control ([3]; post 1st application, 250 g a.i./ha, 3 DAA): 38.1% | % Control ([3]; post 1st application, 250 g a.i./ha, 7 DAA): 40.1% | % Control ([3]; post 1st application, 250 g a.i./ha, 10 DAA): 36.7% | % Control ([3]; post 1st application, 250 g a.i./ha, 14 DAA): 32.9% | % Control ([3]; post 2nd application, 150 g a.i./ha, 3 DAA): 28.3% | % Control ([3]; post 2nd application, 150 g a.i./ha, 7 DAA): 30.4% | % Control ([3]; post 2nd application, 150 g a.i./ha, 10 DAA): 31.8% | % Control ([3]; post 2nd application, 150 g a.i./ha, 14 DAA): 32.6% | % Control ([3]; post 2nd application, 150 g a.i./ha, 21 DAA): 29.9% | % Control ([3]; post 2nd application, 150 g a.i./ha, 28 DAA): 28.9% | % Control ([3]; post 2nd application, 150 g a.i./ha, 35 DAA): 27.3% | % Control ([3]; post 2nd application, 150 g a.i./ha, 42 DAA): 27.1% | % Control ([3]; post 2nd application, 200 g a.i./ha, 3 DAA): 35.6% | % Control ([3]; post 2nd application, 200 g a.i./ha, 7 DAA): 35.3% | % Control ([3]; post 2nd application, 200 g a.i./ha, 10 DAA): 36.3% | % Control ([3]; post 2nd application, 200 g a.i./ha, 14 DAA): 35.3% | % Control ([3]; post 2nd application, 200 g a.i./ha, 21 DAA): 34.5% | % Control ([3]; post 2nd application, 200 g a.i./ha, 28 DAA): 34.5% | % Control ([3]; post 2nd application, 200 g a.i./ha, 35 DAA): 33.7% | % Control ([3]; post 2nd application, 200 g a.i./ha, 42 DAA): 33.3% | % Control ([3]; post 2nd application, 250 g a.i./ha, 3 DAA): 41.4% | % Control ([3]; post 2nd application, 250 g a.i./ha, 7 DAA): 42.7% | % Control ([3]; post 2nd application, 250 g a.i./ha, 10 DAA): 43.7% | % Control ([3]; post 2nd application, 250 g a.i./ha, 14 DAA): 44.4% | % Control ([3]; post 2nd application, 250 g a.i./ha, 21 DAA): 41.4% | % Control ([3]; post 2nd application, 250 g a.i./ha, 28 DAA): 38.8% | % Control ([3]; post 2nd application, 250 g a.i./ha, 35 DAA): 38.1% | % Control ([3]; post 2nd application, 250 g a.i./ha, 42 DAA): 37.9% | Pest severity ([4]; 100 g/100 kg of seeds, 14 DP): 0.2 | Pest severity ([4]; 100 g/100 kg of seeds, 28 DP): 4.3 | Pest severity ([4]; 100 g/100 kg of seeds, 35 DP): 4.8 | Pest severity ([4]; 100 g/100 kg of seeds, 42 DP): 5.9 | Pest severity ([4]; 200 g/100 kg of seeds, 14 DP): 0 | Pest severity ([4]; 200 g/100 kg of seeds, 28 DP): 0.7 | Pest severity ([4]; 200 g/100 kg of seeds, 35 DP): 0.9 | Pest severity ([4]; 200 g/100 kg of seeds, 42 DP): 1.8 | Pest severity ([4]; 300 g/100 kg of seeds, 14 DP): 0 | Pest severity ([4]; 300 g/100 kg of seeds, 28 DP): 0.3 | Pest severity ([4]; 300 g/100 kg of seeds, 35 DP): 0.5 | Pest severity ([4]; 300 g/100 kg of seeds, 42 DP): 0.9 | Pest severity ([4]; 400 g/100 kg of seeds, 14 DP): 0 | Pest severity ([4]; 400 g/100 kg of seeds, 28 DP): 0.3 | Pest severity ([4]; 400 g/100 kg of seeds, 35 DP): 0.5 | Pest severity ([4]; 400 g/100 kg of seeds, 42 DP): 1.1 | Pest severity ([4]; 500 g/100 kg of seeds, 14 DP): 0 | Pest severity ([4]; 500 g/100 kg of seeds, 28 DP): 0 | Pest severity ([4]; 500 g/100 kg of seeds, 35 DP): 0 | Pest severity ([4]; 500 g/100 kg of seeds, 42 DP): 0.3 | efficacy against seed corn maggot (in words) ([4]; summary of Table 3): effective
